Measurements reported in US20200246364A1, “MEDICAL APPLICATION OF COMPOSITION OF FRUCTOSE-1,6-BISPHOSPHATE AND BLOOD CONCENTRATION STABILIZER THEREOF” (ZHEJIANG UNIVERSITY, priority 2017, published 2020).

How the values were obtained:
[1] = test system: C6; assay: Intracellular glycolytic intermediates (LC-MS/MS) and FBP in culture medium; type: cell-based, rat; settings: C6, 1.6 mM, 36 h
Method: Rat glioma cell strains (C6), human glioma cell strains (U87-MG, U-251, SHG-44) and patient-derived glioma cells (tumor 1, tumor 3) were incubated in a culture medium containing 1.6 mM of trisodium fructose-1,6-bisphosphate, and after 36 h, levels of glycolytic intermediates including glucose-6-phosphate G6P, fructose-1,6-bisphosphate FBP, glyceraldehyde 3-phosphate (GAP), dihydroxyacetone phosphate (DHAP), and […] 3-phosphoglyceric acid PGA in respective cells were measured by using LC-MS/MS; and additionally, the levels of fructose-1,6-bisphosphate in each glioma cell strain at 12 h and 36 h were measured.

[2] = test system: Normal human astrocytes (HA); assay: Regulation of metabolism in normal human astrocytes; type: cell-based; settings: vs control group
Method: Normal human astrocytes (HA) were incubated in culture media containing different concentrations of trisodium fructose-1,6-bisphosphate salt (0 mM, 0.25 mM, 0.5 mM, 1 mM), and lactic acid level in the culture media and intracellular ATP level were measured after 12 h and 24 h.
The normal human astrocytes (HA) were incubated in culture media containing different concentrations of trisodium fructose-1,6-bisphosphate salt (0 mM, 0.25 mM, 0.5 mM, 1 mM, 2 mM, 2.5 mM), and after 36 h, reduced glutathione GSH level and a ratio of NADPH/NADP+ in the group of […] trisodium fructose-1,6-bisphosphate in the cells were measured. […] (FIG. 1d, e)

[3] = test system: chronic epilepsy in rats; settings: administered intragastrically; cited from earlier work
[4] = test system: KNS-89; assay: Mitochondrial oxidative phosphorylation in glioma cells (ATP/ADP, NADH/NAD+, ATP); type: cell-based, human
[5] = test system: C6; assay: Glutathiones and NADPH/NADP+ (LC-MS/MS); type: cell-based, rat; settings: C6, 1.6 mM, 36 h
Method: Rat glioma cell strain (C6) and human glioma cell strain (KNS-89, SHG-44) were respectively cultured in a medium containing 1.6 mM of trisodium fructose-1,6-bisphosphate for 36 h, and important antioxidants in cells were measured by liquid-mass spectrometry (LC-MS/MS).

[6] = test system: U87MG; assay: Western Blot of metabolic enzymes and epigenetic proteins, 5-hmC immunocytochemistry; type: cell-based, human; settings: 1.6 mM
Method: Human glioma cell strain (U87MG) was cultured in a medium containing 1.6 mM of trisodium fructose-1,6-bisphosphate for 36 h, and then cytoplasm and mitochondria were separated. Levels of tricarboxylic acid circulation intermediates in cytoplasm and mitochondria were respectively measured by LC-MS/MS.
Human glioma cell strain (U87MG) was respectively cultured in the medium containing 1.6 mM of trisodium fructose-1,6-bisphosphate for 0, 1, 3, 6, 12, 24, 36, and 48 h, and the changes of protein levels of enzymes related to fatty acid and nucleic acid biosynthetic pathway were investigated by Western Blot (WB).
Human glioma cell strain (U87MG) was respectively cultured in the medium containing 1.6 mM of trisodium fructose-1,6-bisphosphate for 24 h and 36 h, and then a level of 5-hydroxymethylcytosine (5-hmC) was measured by an immunocytochemistry method.

[7] = test system: mouse liver cancer cells H22; assay: Tumor growth of mouse liver cancer H22 model; type: in vivo, ICR mice; settings: FBP 500 mg/kg, i.g., 7 days; for Tumor weight: three times per day
Method: The treatment was performed three times per day, in which metformin or sitagliptin was administrated 0.5 h before trisodium fructose-1,6-bisphosphate. This is repeated for 7 days, and situations of the animals during the experiments were observed. The animals were sacrificed 24 hours after the last treatment, the tumor masses were taken out and weighed, and the average tumor weight in each group of animals was used as an efficacy index.

[8] = test system: KNS-89; assay: Intracellular glycolytic intermediates (LC-MS/MS); type: cell-based, human; settings: KNS-89, 1.6 mM, 36 h
[9] = test system: C6; assay: Reactive oxygen species and mitochondrial membrane potential; type: cell-based, rat; settings: C6, 0.8 mM
[10] = test system: mouse tumor models; settings: injected intraperitoneally; cited from earlier work
[11] = test system: U87MG; assay: 13C-glucose tracing: tricarboxylic acid circulation intermediates, derived amino acids, nucleotide synthesis (LC-MS/MS); type: cell-based, human; settings: 1.6 mM, 36 h
Method: Human glioma cell strain (U87MG) was incubated in a medium containing ^13C-labeled glucose (U-^13C-Glc) and treated with 1.6 mM of trisodium fructose-1,6-bisphosphate for 36 h, and then using liquid-mass spectrometry (LC-MS/MS), intracellular tricarboxylic acid circulation intermediates, tricarboxylic acid circulation intermediates-derived amino acids and nucleotide de novo synthesis pathway intermediates were measured.

[12] = healthy volunteers, intravenous infusion 250 mg/kg, cited from earlier work
[13] = test system: C6; assay: Mitochondrial oxidative phosphorylation in glioma cells (ATP/ADP, NADH/NAD+, ATP); type: cell-based, rat
[14] = test system: U251; assay: Reactive oxygen species and mitochondrial membrane potential; type: cell-based, human; settings: U251, 0.8 mM

In the case of `O=C(COP(=O)(O)O)[C@@H](O)[C@H](O)[C@H](O)COP(=O)(O)O` [FBP, fructose-1,6-bisphosphate], the “Increase folds of intracellular DHAP (compared with the control group)” value [1] was 66.04 folds, the “Increase folds of intracellular F6P (compared with the control group)” value [1] was 19.89 folds and the “Increase folds of intracellular FBP (compared with the control group)” value [1] was 92.22 folds. The “Increase folds of intracellular GAP (compared with the control group)” value [1] was 132.85 folds, the “Increase folds of intracellular PGA (compared with the control group)” value [1] was 2.2 folds and the “intracellular protein level of Cyto C (Western Blot)” value ([2]; 0.8 mM, 36 h) was “significantly increased”. For the same molecule, the “intracellular protein levels of PFKFB3 and LDH5 (Western Blot)” value ([2]; 0.8 mM, 36 h) was “significantly reduced”, the “ratio of NADPH/NADP+” value ([2]; 1.6 mM, 36 h) was “significantly increased” and the “lactic acid level in the culture media” value ([2]; 0.25, 0.5, 1 mM, 12 h and 24 h) was “decreased significantly”. For the same molecule, the “intracellular ATP level” value ([2]; 0.25, 0.5, 1 mM, 24 h) was “increased significantly”, the “reduced glutathione GSH level” value ([2]; 0.25-2.5 mM, 36 h) was “significantly increased” and the “long-term effective dose for chronic epilepsy” value [3] was 100 to 200 mg/kg/day. The “ratio of ATP/ADP (CON = 1.00)” value ([4]; KNS-89, 0.8 mM or 1.6 mM, 36 h) was 2.91 ± 0.03, the “ratio of NADH/NAD+ (CON = 1.00)” value ([4]; KNS-89, 0.8 mM or 1.6 mM, 36 h) was 9.44 ± 0.75 and the ATP level ([4]; KNS-89, 36 h, vs control group) was “significantly increased”. The “Relative content of GSH (compared with the control group)” value [5] was 0.69 ± 0.01, the “Relative content of GSSG (compared with the control group)” value [5] was 0.06 ± 0.00 and the “Relative ratio of NADPH to NADP+ (compared with the control group)” value [5] was 0.14 ± 0.01. The “epigenetic related proteins of tumor cells (Ac-Foxo, H3K9ac, H3K9me2)” value [6] was “quickly down-regulated”, the “protein levels of malate shuttle-related enzymes (ME1, MDH1, MDH2, GOT1, GOT2)” value [6] was “decreased significantly over time” and the “protein levels of enzymes related to fatty acid and nucleic acid biosynthesis (CAD, TS, ACL, FASN)” value ([6]; 0-48 h, Western Blot) was “decreased significantly over time”. For the same molecule, the “level of 5-hydroxymethylcytosine (5-hmC)” value ([6]; 24 h and 36 h, immunocytochemistry) was “significantly increased”, the Tumor weight ([7]; H22, metformin experiment, Met 150 mg/kg, Con 1.66 ± 0.29) was 0.91 ± 0.23 g and the Tumor weight ([7]; H22, sitagliptin experiment, STG 20 mg/kg, Con 1.48 ± 0.34) was 0.67 ± 0.28 g. For the same molecule, the “inhibition of tumor growth (inhibition ratio)” value ([7]; H22, metformin 150 mg/kg, sitagliptin 20 mg/kg) was 54.39%, the “Increase folds of intracellular DHAP (compared with the control group)” value [8] was 8.74 folds and the “Increase folds of intracellular F6P (compared with the control group)” value [8] was 1.89 folds. The “Increase folds of intracellular FBP (compared with the control group)” value [8] was 21.97 folds, the “Increase folds of intracellular GAP (compared with the control group)” value [8] was 19.75 folds and the “Increase folds of intracellular PGA (compared with the control group)” value [8] was 3.28 folds. The “Relative level of mitochondrial membrane potential (compared with the control group)” value ([9]; 12 h) was 0.8 ± 0.14, the “Relative level of reactive oxygen species (compared with the control group)” value ([9]; 12 h) was 1.26 ± 0.04 and the “Relative level of mitochondrial membrane potential (compared with the control group)” value ([9]; 24 h) was 0.6 ± 0.11. For the same molecule, the “Relative level of reactive oxygen species (compared with the control group)” value ([9]; 24 h) was 1.89 ± 0.03, the “Relative level of mitochondrial membrane potential (compared with the control group)” value ([9]; 48 h) was 0.1 ± 0.09 and the “Relative level of mitochondrial membrane potential (compared with the control group)” value ([9]; 72 h) was 0.1 ± 0.07. For the same molecule, the “effective dose for mouse tumor models” value [10] was 400-450 mg/kg/time, the “Relative level of Asp (compared with the control group)” value [11] was 0.16 ± 0.07 and the “Relative level of Glu (compared with the control group)” value [11] was 0.35 ± 0.04. For the same molecule, the “Relative level of OAA (compared with the control group)” value [11] was 1.87 ± 0.04, the “Relative level of α-KG (compared with the control group)” value [11] was 1.61 ± 0.01 and the “Proportion of 13C-labeled purine/pyrimidine ring in A” value ([11]; CON 12.41 ± 1.19) was 7.70 ± 1.50. For the same molecule, the “Proportion of 13C-labeled purine/pyrimidine ring in U” value ([11]; CON 20.58 ± 2.30) was 8.33 ± 0.90, the “Proportion of 13C-labeled purine/pyrimidine ring in ATP” value ([11]; CON 38.26 ± 1.50) was 23.77 ± 0.57 and the “Proportion of 13C-labeled purine/pyrimidine ring in UTP” value ([11]; CON 50.67 ± 0.96) was 18.19 ± 0.87. The “Proportion of 13C-labeled purine/pyrimidine ring in G” value ([11]; CON 53.75 ± 1.47) was 41.83 ± 4.06, the blood concentration ([12]; within 5 minutes) was 770 µg/mL and the half-life [12] was 10 to 15 min. The “ratio of ATP/ADP (CON = 1.00)” value ([13]; C6, 0.8 mM or 1.6 mM, 36 h) was 10.89 ± 1.37, the “ratio of NADH/NAD+ (CON = 1.00)” value ([13]; C6, 0.8 mM or 1.6 mM, 36 h) was 7.76 ± 0.59 and the ATP level ([13]; C6, 36 h, vs control group) was “significantly increased”. For the same molecule, the “Relative level of mitochondrial membrane potential (compared with the control group)” value ([14]; 12 h) was 1.08 ± 0.03, the “Relative level of reactive oxygen species (compared with the control group)” value ([14]; 12 h) was 1.20 ± 0.04 and the “Relative level of mitochondrial membrane potential (compared with the control group)” value ([14]; 24 h) was 1.18 ± 0.01. The “Relative level of reactive oxygen species (compared with the control group)” value ([14]; 24 h) was 1.19 ± 0.03, the “Relative level of mitochondrial membrane potential (compared with the control group)” value ([14]; 48 h) was 0.6 ± 0.06 and the “Relative level of reactive oxygen species (compared with the control group)” value ([14]; 48 h) was 1.42 ± 0.03. For the same molecule, the “Relative level of mitochondrial membrane potential (compared with the control group)” value ([14]; 72 h) was 0.4 ± 0.07 and the “Relative level of reactive oxygen species (compared with the control group)” value ([14]; 72 h) was 1.82 ± 0.03.
